The values that follow come from patent US20240158756A1, “FEEDER-BASED AND FEEDER-FREE STEM CELL CULTURE SYSTEMS FOR STRATIFIED EPITHELIAL STEM CELLS, AND USES RELATED THERETO” (University of Houston System, priority 2019, published 2024).

The target in one assay is T1, ALK5 (TGF-β RI) (Homo sapiens, UniProt P36897).
T1 sequence (P36897 34-503): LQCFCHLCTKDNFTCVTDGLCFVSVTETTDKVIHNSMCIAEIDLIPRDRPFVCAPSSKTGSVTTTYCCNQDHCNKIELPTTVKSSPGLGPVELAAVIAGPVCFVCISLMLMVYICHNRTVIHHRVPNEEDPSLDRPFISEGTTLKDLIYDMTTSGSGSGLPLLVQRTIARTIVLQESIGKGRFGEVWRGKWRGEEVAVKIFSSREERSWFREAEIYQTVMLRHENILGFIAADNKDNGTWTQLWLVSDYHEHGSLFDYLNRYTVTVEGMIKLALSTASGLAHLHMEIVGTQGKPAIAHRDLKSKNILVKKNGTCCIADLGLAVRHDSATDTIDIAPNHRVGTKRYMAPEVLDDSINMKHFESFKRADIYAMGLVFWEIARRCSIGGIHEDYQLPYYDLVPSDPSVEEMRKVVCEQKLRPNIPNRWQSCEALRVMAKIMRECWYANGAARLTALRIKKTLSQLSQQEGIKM
The note with it: high concentrations, approximate; cited from earlier work.

Assay [1] concerns epithelial stem cells derived from human tissues or other mammals. The assay can be described thus: Feeder-free epithelial stem cell culture. Type of assay: cell-based. The source says: Another illustrative system is a medium referred to as SGM-63+. The SGM-63+ medium has been tested and proven to support robust growth of epithelial stem cells derived from human tissues or other mammals in the absence of the irradiate feeder of mouse fibroblast cells (3T3-J2). For example, lung stem cells, esophagus stem cell, bladder stem cells and ovarian cancer stem cells, can all grow robustly in this culture system that comprises SGM-63+ medium without the need of irradiated 3T3-J2 feeders in the illustrated example.
The base medium comprises DMEM, F12, FBS, L-glutamine, Adenine, Pen/Strep, Insulin, T3, Hydrocortisone, EGF and is further added a Rock inhibitor, TGF-beta inhibitor, BMP4 inhibitor, VEGF inhibitor, TrkA inhibitor, Ponatinib, CK2 inhibitor, Syk inhibitor, LPA Receptor antagonist, Oct 4-activating compound 1, GSK3 inhibitor and FGF10. […] R-spondin was found not required to support the self-renewal and multipotency of stratified epithelial stem cells.

The test system is the same in assay [2]. Kind of assay: Epithelial stem cell culture on irradiated 3T3-J2 feeder. The note with it: feeder-based medium. The source says:
An illustrative system is a medium referred to as SQM. The SQM medium has been tested and proven to support robust growth of epithelial stem cells derived from human tissues or other mammals in the presence of the irradiate feeder of mouse fibroblast cells (3T3-J2). For example, lung stem cells, esophagus stem cell, bladder stem cells and ovarian cancer stem cells, can all grow robustly in this culture system that comprises SQM medium, along with irradiated 3T3-J2 feeders in the illustrated example.
The base medium comprises DMEM, F12, FBS, L-glutamine, Adenine, Pen/Strep, Insulin, T3, Hydrocortisone, EGF and is further added a Rock inhibitor, TGF-beta inhibitor, BMP4 inhibitor, VEGF inhibitor, TrkA inhibitor, Ponatinib and FGF10. […] R-spondin was found not required to support the self-renewal and multipotency of stratified epithelial stem cells.

Regarding “4-[5-(4-Fluorophenyl)-2-[4-(methylsulfonyl)phenyl]-1H-imidazol-4-yl]pyridine [SB-203580]”, the “concentration at which ALK5 may be inhibited” value at ALK5 (TGF-β RI) is no less than 10 µM.
Turning to “jagged1: Notch agonist, surface-bound or secreted Notch ligand”, the “effect of inclusion in the medium on epithelial stem cell self-renewal” value was “induce the abortion of some epithelial stem cell (lung, esophagus etc) self-renewal” in assay [1] and “induce the abortion of some epithelial stem cell (lung, esophagus etc) self-renewal” in assay [2].
As for `NC(=O)c1cccnc1` [nicotinamide], the “effect of inclusion in the medium on epithelial stem cell self-renewal” value is listed as “induce the abortion of some epithelial stem cell (lung, esophagus etc) self-renewal” in assay [1] and “induce the abortion of some epithelial stem cell (lung, esophagus etc) self-renewal” in assay [2].
